According to US20020128231A1 (priority 2000, published 2002):

Legend:
[1] = molecular target: P-glycoprotein (Homo sapiens, UniProt P08183); assay: Rhodamine 123 transport assay across HCT-8 cell monolayers; conditions: for inhibition at 10 μM: human, HCT-8 cell monolayers in Transwell dishes, probe Rhodamine 123 (15 μM)
Procedure: The human ileocecal adenocarcinoma cell line HCT-8 was grown in RPMI-1640 medium supplemented with 10% horse serum, 1 mM sodium pyruvate and 0.01 mg/ml gentamicin. All cells were maintained in a humidified atmosphere with 5% CO2 at 37° C.
Rhodamine 123 transport was examined as previously described (Hunter J. et al., Simmons, Br. J. Cancer, 64: 437444 (1991); Kim A. E. et al., J. Pharm. Exp. Ther., 286: 1439-1445 (1998)) using HCT-8 cells. Particularly, cells were grown in 6 well Corning Transwell dishes until a tight monolayer was formed. Rh123 was added at a final concentration of 15 μM to the basal or apical compartments and 200 μl samples were taken at the indicated times from the opposite chamber. Fluorescence of Rh123 in the media samples was measured using a fluorescence plate reader with an excitation wavelength of 485 nm and an emission wavelength of 530 nm.

[2] = system: MDR1-expressing NIH 3T3 cells; assay: Cytotoxicity (MTT) assay: modulation of drug cytotoxicity in multidrug resistant cells; conditions: compound 5 μM; 50 nM doxorubicin; 72 hours; MTT
[3] = compound 10 μM, Rh123 15 μM, HCT-8 cells
[4] = % Inhibition of R123 Transport, compound 10 μM, Rh123 15 μM, HCT-8 cells

Sequence of P-glycoprotein (P08183 whole entry): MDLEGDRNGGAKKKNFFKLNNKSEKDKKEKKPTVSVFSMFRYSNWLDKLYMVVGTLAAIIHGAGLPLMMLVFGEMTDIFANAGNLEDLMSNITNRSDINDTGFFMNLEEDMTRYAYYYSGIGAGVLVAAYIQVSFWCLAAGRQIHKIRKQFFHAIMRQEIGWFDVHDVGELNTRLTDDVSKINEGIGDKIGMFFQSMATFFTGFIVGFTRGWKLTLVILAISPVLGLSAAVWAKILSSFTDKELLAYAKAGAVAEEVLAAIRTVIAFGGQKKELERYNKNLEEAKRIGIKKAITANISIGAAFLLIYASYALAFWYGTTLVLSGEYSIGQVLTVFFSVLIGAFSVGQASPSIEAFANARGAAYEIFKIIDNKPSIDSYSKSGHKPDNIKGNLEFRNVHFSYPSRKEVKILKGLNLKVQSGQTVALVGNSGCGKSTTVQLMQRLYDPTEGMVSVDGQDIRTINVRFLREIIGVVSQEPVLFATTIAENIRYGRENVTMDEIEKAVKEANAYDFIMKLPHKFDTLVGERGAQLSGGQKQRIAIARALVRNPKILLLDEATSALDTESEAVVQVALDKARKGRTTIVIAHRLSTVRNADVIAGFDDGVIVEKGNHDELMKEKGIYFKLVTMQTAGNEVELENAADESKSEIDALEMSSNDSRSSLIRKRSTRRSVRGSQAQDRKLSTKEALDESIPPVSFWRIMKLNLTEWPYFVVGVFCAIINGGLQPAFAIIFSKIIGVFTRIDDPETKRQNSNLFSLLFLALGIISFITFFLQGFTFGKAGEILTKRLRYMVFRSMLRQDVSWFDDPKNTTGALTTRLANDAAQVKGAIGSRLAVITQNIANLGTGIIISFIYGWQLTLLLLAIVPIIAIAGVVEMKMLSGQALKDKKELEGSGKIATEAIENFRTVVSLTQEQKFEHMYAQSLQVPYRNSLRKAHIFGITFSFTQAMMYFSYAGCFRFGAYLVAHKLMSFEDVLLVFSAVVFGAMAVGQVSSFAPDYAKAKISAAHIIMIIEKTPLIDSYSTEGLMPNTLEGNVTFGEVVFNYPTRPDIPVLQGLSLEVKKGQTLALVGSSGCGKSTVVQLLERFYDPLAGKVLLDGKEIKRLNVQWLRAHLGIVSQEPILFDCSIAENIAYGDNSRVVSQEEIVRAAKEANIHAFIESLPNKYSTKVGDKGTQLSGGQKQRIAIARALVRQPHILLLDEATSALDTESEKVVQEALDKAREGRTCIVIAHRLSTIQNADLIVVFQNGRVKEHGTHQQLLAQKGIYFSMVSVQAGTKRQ

Row | Compound | % Inhibition of R123 Transport [1, 3] [%] | inhibition at 10 μM [1, 4] [%] | inhibition at 10 μM [1] [%] | Modulation of Drug Resistance (percentage increase in doxorubicin cytotoxicity in the presence of the compounds versus in their absence) [2] [%]
1 | COCC1C(CCN2CCC(Cc3ccccc3)CC2)c2cc(OC)c(OC)cc2C1c1ccc(OC)c(OC)c1 (stereo not drawn) |  |  | 88.9 | 73.65
2 | CCCOc1ccc(C2c3cc(OCCC)c(OC)cc3C(CC(=O)N3CCN(c4ccccc4OCC)CC3)C2C(=O)N2CCN(c3ccccc3OCC)CC2)cc1OC (single isomer, unassigned) [AV-239-1] | 90.10 |  |  | 55.3
3 | COc1cc(C2c3cc(O)c(OC)cc3C(CC(=O)N3CCC(Cc4ccccc4)CC3)C2C(=O)N2CCC(Cc3ccccc3)CC2)ccc1O (single isomer, unassigned) [AV-251-1] | 79.26 |  |  | −6.9
4 | COc1cc(C2c3cc(O)c(OC)cc3C(CC(=O)N3CCC(Cc4ccccc4)CC3)C2C(=O)N2CCC(Cc3ccccc3)CC2)ccc1O (single isomer, unassigned) [AV-251-2] | 75.44 |  |  | 2.4
5 | CCOc1ccccc1N1CCN(C(=O)CC2c3cc4c(cc3C(c3ccc5c(c3)OCO5)C2C(=O)N2CCN(c3ccccc3OCC)CC2)OCO4)CC1 (single isomer, unassigned) [AV-258-2, 2-{7-benzo[1,3]dioxol-5-yl-6-[4-(2-ethoxy-phenyl)-piperazin-1-carbonyl]-6,7-dihydro-5H-indeno[5,6-d][1,3]dioxol-5-yl}-1-[4-(2-ethoxy-phenyl)-piperazin-1-yl]-ethanone] | 67.09 |  |  | 19.2
6 | COc1ccc(C2c3cc(OC)c(OC)cc3C(CC(=O)N3CCC(Cc4ccccc4)CC3)C2C(=O)N2CCC(Cc3ccccc3)CC2)cc1OC (stereo not drawn) [AV-159, 2-[2-(4-benzylpiperidine-1-carbonyl)-3-(3,4-dimethoxyphenyl)-5,6-dimethoxy-indan-1-yl]-1-(4-benzylpiperidin-1-yl)-ethanone] |  | 81.4 |  | 56.06
7 | COc1ccc(C2c3cc(OC)c(OC)cc3C(CC(=O)N3CCN(c4ccccc4)CC3)C2C(=O)N2CCN(c3ccccc3)CC2)cc1OC (stereo not drawn) [AV-161, 2-[3-(3,4-dimethoxyphenyl)-5,6-dimethoxy-2-(4-phenylpiperazin-1-carbonyl)-indan-1-yl]-1-(4-phenylpiperazin-1-yl)-ethanone] |  | 64.1 |  | 75.91
8 | COCC1C(CCO)c2cc(OC)c(OC)cc2C1c1ccc(OC)c(OC)c1 (stereo not drawn) [AV-176, 2-[3-[3,4-dimethoxyphenyl)-5,6-dimethoxy-2-methoxymethyl-indan-1-yl]-ethanol] |  | 11.5 |  | 8.65
9 | COCC1C(CCN2CCN(CC=Cc3ccccc3)CC2)c2cc(OC)c(OC)cc2C1c1ccc(OC)c(OC)c1 (stereo not drawn) [AV-204, 1-{2-[3-(3,4-dimethoxyphenyl)-5,6-dimethoxy-2-methoxymethyl-indan-1-yl]-ethyl}-4-(3-phenylallyl)-piperazine] |  |  |  | 64.60

More lines, main results first:

Row | % Inhibition of R123 Transport [1, 3] [%] | inhibition at 10 μM [1, 4] [%] | Compound | inhibition at 10 μM [1] [%] | Modulation of Drug Resistance (percentage increase in doxorubicin cytotoxicity in the presence of the compounds versus in their absence) [2] [%]
10 | 64.4 |  | 2-{3-(3,4-dimethoxyphenyl)-5,6-dimethoxy-2-[4-(4-nitrophenyl)-piperazin-1-carbonyl]-indan-1-yl}-1-[4-(4-nitrophenyl)-1-yl]-ethanone [AV-196] |  | 41.47
11 | 91.38 |  | CCCOc1ccc(C2c3cc(OCCC)c(OC)cc3C(CC(=O)N3CCN(c4ccccc4OCC)CC3)C2C(=O)N2CCN(c3ccccc3OCC)CC2)cc1OC (single isomer, unassigned) [AV-239-2] |  | 60
12 |  | 69.9 | CCOc1ccccc1N1CCN(C(=O)CC2c3cc4c(cc3C(c3ccc5c(c3)OCO5)C2C(=O)N2CCN(c3ccccc3OCC)CC2)OCO4)CC1 (single isomer, unassigned) [AV-258-1, 2-{7-benzo[1,3]dioxol-5-yl-6-[4-(2-ethoxy-phenyl)-piperazin-1-carbonyl]-6,7-dihydro-5H-indeno[5,6-d][1,3]dioxol-5-yl}-1-[4-(2-ethoxy-phenyl)-piperazin-1-yl]-ethanone] |  | 7.9
13 |  | 83.1 | COc1ccc(C2c3cc(OC)c(OC)cc3C(CCN3CCN(c4ccccc4)CC3)C2CN2CCN(c3ccccc3)CC2)cc1OC (stereo not drawn) [AV-162, 2-[3-(3,4-dimethoxyphenyl)-5,6-dimethoxy-2-(4-phenylpiperazin-1-yl)methyl-indan-1-yl]-1-(4-phenylpiperazin-1-yl)-ethane] |  | 65.83
14 |  | 89.7 | COc1ccc(C2c3cc(OC)c(OC)cc3C(CC(=O)N3CCN(c4ccc(C(C)=O)cc4)CC3)C2C(=O)N2CCN(c3ccc(C(C)=O)cc3)CC2)cc1OC (stereo not drawn) [AV-163, 2-[2-[4-(4-acetylphenyl)-piperazin-1-carbonyl]-3-(3,4-dimethoxyphenyl)-5,6-dimethoxy-indan-1-yl]-1[4-(4-acetylphenyl)piperazine-1-yl]-ethanone] |  | 72.55
15 |  | 85.1 | COc1ccc(C2c3cc(OC)c(OC)cc3C(CC(=O)N3CCN(Cc4ccccc4)CC3)C2C(=O)N2CCN(Cc3ccccc3)CC2)cc1OC (stereo not drawn) [AV-164, 2-[2-(4-benzylpiperazine-1-carbonyl)-3-(3,4-dimethoxyphenyl)-5,6-dimethoxy-indan-1-yl]-1-(4-benzylpiperazine-1-yl)-ethanone] |  | 70.03
16 |  | 66.3 | COc1ccc(C2c3cc(OC)c(OC)cc3C(CC(=O)N3CCN(c4ccc(Cl)cc4)CC3)C2C(=O)N2CCN(c3ccc(Cl)cc3)CC2)cc1OC (stereo not drawn) [AV-167, 2-[2-[4-(4-chlorophenyl)-piperazin-1 carbonyl]-3-(3,4-dimethoxyphenyl)-5,6-dimethoxy-indan-1-yl]-1-[4-(4-chlorophenyl)piperazine-1-yl]-ethanone] |  | 68.21
17 | 81.5 |  | COc1ccc(N2CCN(C(=O)CC3c4cc(OC)c(OC)cc4C(c4ccc(OC)c(OC)c4)C3C(=O)N3CCN(c4ccc(OC)cc4)CC3)CC2)cc1 (stereo not drawn) [AV-168, 2-{3-(3,4-dimethoxyphenyl)-5,6-dimethoxy-2-[4-(4-methoxyphenyl)-piperazin-1-carbonyl]-indan-1-yl}-1-[4-(4-methoxyphenyl)-1-yl]-ethanone] |  | 73.81
18 |  | 77.1 | COc1ccc(C2c3cc(OC)c(OC)cc3C(CC(=O)N3CCN(c4ccc(F)cc4)CC3)C2C(=O)N2CCN(c3ccc(F)cc3)CC2)cc1OC (stereo not drawn) [AV-169, 2-{2-[4-(4-fluorophenyl)-piperazin-1-carbonyl]-3-(3,4-dimethoxyphenyl)-5,6-dimethoxy-indan-1-yl}-1-[4-(4-fluorophenyl)piperazine-1-yl]-ethanone] |  | 71.29
19 | 92.9 |  | CCOc1ccccc1N1CCN(C(=O)CC2c3cc(OC)c(OC)cc3C(c3ccc(OC)c(OC)c3)C2C(=O)N2CCN(c3ccccc3OCC)CC2)CC1 (stereo not drawn) [AV-171, 2-{3-(3,4-dimethoxyphenyl)-5,6-dimethoxy-2-[4-(2-ethoxyphenyl)-piperazin-1-carbonyl]-indan-1-yl}-1-[4-(2-ethoxyphenyl)-1-yl]-ethanone] |  | 66.11
20 |  | 86.7 | COc1ccc(C2c3cc(OC)c(OC)cc3C(CC(=O)N3CCN(CC=Cc4ccccc4)CC3)C2C(=O)N2CCN(CC=Cc3ccccc3)CC2)cc1OC (stereo not drawn) [AV-172, 2-{3-(3,4-dimethoxyphenyl)-5,6-dimethoxy-2-[4-(3-phenylallyl)-piperazine-1-carbonyl]-indan-1-yl}-1-[4-(3-phenylallyl)piperazine-1-yl]-ethanone] |  | 68.57
21 | 23.1 |  | CCOC(=O)N1CCN(C(=O)CC2c3cc(OC)c(OC)cc3C(c3ccc(OC)c(OC)c3)C2C(=O)N2CCN(C(=O)OCC)CC2)CC1 (stereo not drawn) [AV-174, 4-{2-[3-(3,4-dimethoxyphenyl)-5,6-dimethoxy-2-(piperazine-1-carboxylic acid ethyl ester)-indan-1-yl]-acetyl}-piperazine-1-carboxylic acid ethyl ester] |  | 18.50
22 | 71.3 |  | COc1ccc(C2c3cc(OC)c(OC)cc3C(CCO[Si](c3ccccc3)(c3ccccc3)C(C)(C)C)C2CO)cc1OC (stereo not drawn) [AV-175, [1-[2-t-butyldiphenyl-silanoxy)-ethyl-3-(3,4-dimethoxyphenyl)-5,6-dimethoxy-indan-2-yl]-methanol] |  | 52.50
23 | 9.4 |  | COCC1C(CCOS(C)(=O)=O)c2cc(OC)c(OC)cc2C1c1ccc(OC)c(OC)c1 (stereo not drawn) [AV-177, methanesulfonic acid 2-[3-(3,4-dimethoxyphenyl)-5,6-dimethoxy-2-methoxymethyl-indan-1-yl] ethyl ester] |  | 40.32
